Assay results from patent publication US20100184783A1, “COMBINATION FOR USE IN THE TREATMENT OF INFLAMMATORY ATHEROSCLEROSIS COMPRISING A MAST CELL INHIBITOR AND A PPAR GAMMA AGONIST” (priority 2007, published 2010).

Tested on: human macrophage cell-line MonoMac-6 (MM6)
Assay: Inhibition of macrophage proliferation (MM6 cell proliferation, WST-1 reagent)
Type: cell-based
Conditions: 46 hours, mean, n=5
Procedure: Cells from the human macrophage cell-line MonoMac-6 (MM6) (Ziegler-Heitbrock et al, Int. J. Cancer, 41, 456 (1988)) were cultured (37° C./5% CO2) in RPMI-1640 medium supplemented with 1 mM sodium pyruvate, 1×nonessential amino acids, 10 μg/mL insulin, 1 mM oxalacetic acid, 100 units/mL penicillin, 100 μg/mL streptomycin and 10% (v/v) fetal bovine serum. At the start of the experiment, MM6 cells were seeded in 96-well plates at a density of 1>10^5 cells/mL (100 μL per well). Proliferation of the MM6 cells was measured using the Cell Proliferation Reagent WST-1 (Roche Diagnostics Scandinavia AB, Bromma, Sweden) or by cell counting using a microscope. The WST-1 reagent is designed to be used for spectrophotometric quantification of e.g. cell growth in proliferation assays and was used according to the manufacturers' instructions. The wavelength for measuring absorbance was 450 nm. Stock solutions of pemirolast (potassium salt; purchased from American Custom Chemicals Corporation, San Diego, USA) were made in sterile saline. Pioglitazone (HCl salt; purchased from AK Scientific, Inc., Mountain View, Calif., USA) was dissolved in DMSO and then diluted in sterile saline leading to final DMSO concentrations in the MM6 incubations of 0.003%, 0.01% and 0.03% for the final pioglitazone concentrations of 0.1 μM, 0.3 μM and 1 μM, respectively. The effects of treatment with pioglitazone (alone and in combination) on MM6 proliferation were compared with control treatments containing DMSO at concentrations corresponding to the DMSO concentrations used in the different respective pioglitazone treatments. Untreated MM6 cells increased from 1×10^5 cells/mL at the start of the experiment to 1.4×10^5±0.06×10^5 cells/mL and 2.3×10^5±0.10×10^5 cells/mL after 24 and 48 hours, respectively (mean values±sem, n=4 for each of the three time-points). Pemirolast and/or pioglitazone were added at the start of the experiments and 46 hours later the effects of the drugs on MM6 cell proliferation were studied using the WST-1 reagent described above. The WST-1 reagent was added at 44 hours after start of the experiments and the average absorbance of untreated control cells exposed to the WST-1 reagent was 0.89 (n=5).

SMILES | MM6 proliferation, of the proliferation of untreated control cells (10 μM pemirolast) [%] | MM6 proliferation, of the proliferation of untreated control cells (30 μM pemirolast) [%] | MM6 proliferation, of the proliferation of untreated control cells (100 μM pemirolast) [%] | MM6 proliferation, of the proliferation of untreated control cells (0.1 μM pioglitazone, control with DMSO) [%] | MM6 proliferation, of the proliferation of untreated control cells (0.3 μM pioglitazone, control with DMSO) [%] | MM6 proliferation, of the proliferation of untreated control cells (1 μM pioglitazone, control with DMSO) [%]
Cc1cccn2c(=O)c(-c3nnn[nH]3)cnc12 [pemirolast] | 101 | 124 | 102 |  |  | 
CCc1ccc(CCOc2ccc(CC3SC(=O)NC3=O)cc2)nc1 (stereo not drawn) [pioglitazone] |  |  |  | 91 | 96 | 88
